Measurements as given in ChEMBL document CHEMBL3875175, “Multi-targeting exploration of new 2-aminothiazolyl quinolones: Synthesis, antimicrobial evaluation, interaction with DNA, combination with topoisomerase IV and penetrability into cells” (Eur J Med Chem, 2016).
Values after ≈ are worked out from the molar mass of the structure shown.

Key:
Staphylococcus aureus [1] = test: Antibacterial activity against methicillin-resistant Staphylococcus aureus N315 after 24 hrs by two fold serial dilution method; type: functional; conditions: N315, 24 h
Staphylococcus aureus [2] = test: Antibacterial activity against Staphylococcus aureus ATCC 25923 after 24 hrs by two fold serial dilution method; type: functional; conditions: ATCC 25923, 24 h
Bacillus spizizenii = test: Antibacterial activity against Bacillus subtilis ATCC 6633 after 24 hrs by two fold serial dilution method; type: functional; conditions: ATCC 6633, 24 h
Micrococcus luteus = test: Antibacterial activity against Micrococcus luteus ATCC 4698 after 24 hrs by two fold serial dilution method; type: functional; conditions: NCTC 2665, 24 h
Escherichia coli [3] = test: Antibacterial activity against Escherichia coli DH52 after 24 hrs by two fold serial dilution method; type: functional; conditions: DH52, 24 h
Escherichia coli [4] = test: Antibacterial activity against Escherichia coli JM109 after 24 hrs by two fold serial dilution method; type: functional; conditions: JM109, 24 h
Shigella dysenteriae = test: Antibacterial activity against Shigella dysenteriae after 24 hrs by two fold serial dilution method; type: functional
Pseudomonas aeruginosa = test: Antibacterial activity against Pseudomonas aeruginosa ATCC 27853 after 24 hrs by two fold serial dilution method; type: functional; conditions: ATCC 27853, 24 h
Proteus vulgaris = test: Antibacterial activity against Bacillus proteus ATCC 13315 after 24 hrs by two fold serial dilution method; type: functional; conditions: ATCC 13315, 24 h
Salmonella typhi = test: Antibacterial activity against Bacillus typhi after 24 hrs by two fold serial dilution method; type: functional, Salmonella enterica subsp. enterica serovar Typhi; conditions: Salmonella enterica
Candida albicans = test: Antifungal activity against Candida albicans ATCC 76615 after 24 hrs by two fold serial dilution method; type: functional; conditions: ATCC 76615, 24 h
[5] = Antifungal activity against Candida mycoderma after 24 hrs by two fold serial dilution method; type: functional; conditions: Pichia norvegensis
[6] = Antifungal activity against Candida utilis after 24 hrs by two fold serial dilution method; type: functional; conditions: Cyberlindnera jadinii
Aspergillus flavus = test: Antifungal activity against Aspergillus flavus after 24 hrs by two fold serial dilution method; type: functional
Saccharomyces cerevisiae = test: Antifungal activity against Beer yeast after 24 hrs by two fold serial dilution method; type: functional

SMILES	MIC (Staphylococcus aureus [1])	MIC (Staphylococcus aureus [2])	MIC (Bacillus spizizenii)	MIC (Micrococcus luteus)	MIC (Escherichia coli [3])	MIC (Escherichia coli [4])	MIC (Shigella dysenteriae)	MIC (Pseudomonas aeruginosa)	MIC (Proteus vulgaris)	MIC (Salmonella typhi)	MIC80 (Candida albicans)	MIC80 [5]	MIC80 [6]	MIC80 (Aspergillus flavus)	MIC80 (Saccharomyces cerevisiae)
CCCCCn1cc(-c2cnc(N)s2)c(=O)c2cc(F)cc(F)c21	32 µg/mL (≈ 91.6 µM)	256 µg/mL (≈ 733 µM)	64 µg/mL (≈ 183 µM)	128 µg/mL (≈ 366 µM)	32 µg/mL (≈ 91.6 µM)	64 µg/mL (≈ 183 µM)	16 µg/mL (≈ 45.8 µM)	16 µg/mL (≈ 45.8 µM)	64 µg/mL (≈ 183 µM)	16 µg/mL (≈ 45.8 µM)	64 µg/mL (≈ 183 µM)	32 µg/mL (≈ 91.6 µM)	64 µg/mL (≈ 183 µM)	16 µg/mL (≈ 45.8 µM)	128 µg/mL (≈ 366 µM)
Nc1ncc(-c2cn(Cc3ccc(F)cc3)c3c(F)cc(F)cc3c2=O)s1	16 µg/mL (≈ 41.3 µM)	32 µg/mL (≈ 82.6 µM)	128 µg/mL (≈ 330 µM)	16 µg/mL (≈ 41.3 µM)	32 µg/mL (≈ 82.6 µM)	16 µg/mL (≈ 41.3 µM)	4 µg/mL (≈ 10.3 µM)	64 µg/mL (≈ 165 µM)	64 µg/mL (≈ 165 µM)	16 µg/mL (≈ 41.3 µM)	32 µg/mL (≈ 82.6 µM)	16 µg/mL (≈ 41.3 µM)	64 µg/mL (≈ 165 µM)	32 µg/mL (≈ 82.6 µM)	32 µg/mL (≈ 82.6 µM)
Nc1ncc(-c2cn(Cc3cccc(F)c3)c3c(F)cc(F)cc3c2=O)s1	32 µg/mL (≈ 82.6 µM)	64 µg/mL (≈ 165 µM)	128 µg/mL (≈ 330 µM)	128 µg/mL (≈ 330 µM)	128 µg/mL (≈ 330 µM)	128 µg/mL (≈ 330 µM)	64 µg/mL (≈ 165 µM)	64 µg/mL (≈ 165 µM)	32 µg/mL (≈ 82.6 µM)	32 µg/mL (≈ 82.6 µM)	64 µg/mL (≈ 165 µM)	32 µg/mL (≈ 82.6 µM)	64 µg/mL (≈ 165 µM)	64 µg/mL (≈ 165 µM)	64 µg/mL (≈ 165 µM)
Nc1ncc(-c2cn(Cc3cccc(Cl)c3)c3c(F)cc(F)cc3c2=O)s1	128 µg/mL (≈ 317 µM)	64 µg/mL (≈ 158 µM)	256 µg/mL (≈ 634 µM)	128 µg/mL (≈ 317 µM)	32 µg/mL (≈ 79.2 µM)	256 µg/mL (≈ 634 µM)	128 µg/mL (≈ 317 µM)	64 µg/mL (≈ 158 µM)	256 µg/mL (≈ 634 µM)	32 µg/mL (≈ 79.2 µM)	128 µg/mL (≈ 317 µM)	64 µg/mL (≈ 158 µM)	256 µg/mL (≈ 634 µM)	64 µg/mL (≈ 158 µM)	64 µg/mL (≈ 158 µM)
Nc1ncc(-c2cn(Cc3ccc([N+](=O)[O-])cc3)c3c(F)cc(F)cc3c2=O)s1	128 µg/mL (≈ 309 µM)	256 µg/mL (≈ 618 µM)	128 µg/mL (≈ 309 µM)	128 µg/mL (≈ 309 µM)	32 µg/mL (≈ 77.2 µM)	128 µg/mL (≈ 309 µM)	256 µg/mL (≈ 618 µM)	64 µg/mL (≈ 154 µM)	128 µg/mL (≈ 309 µM)	64 µg/mL (≈ 154 µM)	32 µg/mL (≈ 77.2 µM)	128 µg/mL (≈ 309 µM)	256 µg/mL (≈ 618 µM)	64 µg/mL (≈ 154 µM)	64 µg/mL (≈ 154 µM)
OC(Cn1cncn1)(Cn1cncn1)c1ccc(F)cc1F [FLUCONAZOLE]											1 µg/mL (≈ 3.27 µM)	4 µg/mL (≈ 13.1 µM)	8 µg/mL (≈ 26.1 µM)	256 µg/mL (≈ 836 µM)	16 µg/mL (≈ 52.2 µM)
Nc1ncc(-c2cn(Cc3ccccc3Cl)c3c(F)cc(F)cc3c2=O)s1	64 µg/mL (≈ 158 µM)	128 µg/mL (≈ 317 µM)	256 µg/mL (≈ 634 µM)	64 µg/mL (≈ 158 µM)	128 µg/mL (≈ 317 µM)	128 µg/mL (≈ 317 µM)	64 µg/mL (≈ 158 µM)	32 µg/mL (≈ 79.2 µM)	256 µg/mL (≈ 634 µM)	128 µg/mL (≈ 317 µM)	128 µg/mL (≈ 317 µM)	64 µg/mL (≈ 158 µM)	64 µg/mL (≈ 158 µM)	64 µg/mL (≈ 158 µM)	128 µg/mL (≈ 317 µM)
O=C(N[C@H](CO)[C@H](O)c1ccc([N+](=O)[O-])cc1)C(Cl)Cl [CHLORAMPHENICOL]	16 µg/mL (≈ 49.5 µM)	16 µg/mL (≈ 49.5 µM)	32 µg/mL (≈ 99 µM)	8 µg/mL (≈ 24.8 µM)	32 µg/mL (≈ 99 µM)	32 µg/mL (≈ 99 µM)	16 µg/mL (≈ 49.5 µM)	32 µg/mL (≈ 99 µM)	32 µg/mL (≈ 99 µM)	32 µg/mL (≈ 99 µM)					
CCn1cc(C(=O)O)c(=O)c2cc(F)c(N3CCNCC3)cc21 [NORFLOXACIN]	8 µg/mL (≈ 25.1 µM)	2 µg/mL (≈ 6.26 µM)	4 µg/mL (≈ 12.5 µM)	2 µg/mL (≈ 6.26 µM)	1 µg/mL (≈ 3.13 µM)	1 µg/mL (≈ 3.13 µM)	16 µg/mL (≈ 50.1 µM)	16 µg/mL (≈ 50.1 µM)	8 µg/mL (≈ 25.1 µM)	4 µg/mL (≈ 12.5 µM)					
CCCCCCCn1cc(-c2cnc(N)s2)c(=O)c2cc(F)cc(F)c21	128 µg/mL (≈ 339 µM)	256 µg/mL (≈ 678 µM)	64 µg/mL (≈ 170 µM)	256 µg/mL (≈ 678 µM)	32 µg/mL (≈ 84.8 µM)	128 µg/mL (≈ 339 µM)	32 µg/mL (≈ 84.8 µM)	32 µg/mL (≈ 84.8 µM)	32 µg/mL (≈ 84.8 µM)	64 µg/mL (≈ 170 µM)	32 µg/mL (≈ 84.8 µM)	256 µg/mL (≈ 678 µM)	64 µg/mL (≈ 170 µM)	64 µg/mL (≈ 170 µM)	16 µg/mL (≈ 42.4 µM)
CCCCCCCCCCn1cc(-c2cnc(N)s2)c(=O)c2cc(F)cc(F)c21	256 µg/mL (≈ 610 µM)	512 µg/mL (≈ 1220 µM)	256 µg/mL (≈ 610 µM)	128 µg/mL (≈ 305 µM)	64 µg/mL (≈ 153 µM)	64 µg/mL (≈ 153 µM)	64 µg/mL (≈ 153 µM)	64 µg/mL (≈ 153 µM)	128 µg/mL (≈ 305 µM)	256 µg/mL (≈ 610 µM)	64 µg/mL (≈ 153 µM)	64 µg/mL (≈ 153 µM)	128 µg/mL (≈ 305 µM)	64 µg/mL (≈ 153 µM)	64 µg/mL (≈ 153 µM)
Nc1ncc(-c2cn(Cc3ccccc3F)c3c(F)cc(F)cc3c2=O)s1	64 µg/mL (≈ 165 µM)	32 µg/mL (≈ 82.6 µM)	64 µg/mL (≈ 165 µM)	64 µg/mL (≈ 165 µM)	64 µg/mL (≈ 165 µM)	64 µg/mL (≈ 165 µM)	32 µg/mL (≈ 82.6 µM)	128 µg/mL (≈ 330 µM)	128 µg/mL (≈ 330 µM)	8 µg/mL (≈ 20.7 µM)	64 µg/mL (≈ 165 µM)	64 µg/mL (≈ 165 µM)	128 µg/mL (≈ 330 µM)	32 µg/mL (≈ 82.6 µM)	64 µg/mL (≈ 165 µM)
CCCCCCCCCCCCn1cc(-c2cnc(N)s2)c(=O)c2cc(F)cc(F)c21	128 µg/mL (≈ 286 µM)	512 µg/mL (≈ 1140 µM)	64 µg/mL (≈ 143 µM)	128 µg/mL (≈ 286 µM)	256 µg/mL (≈ 572 µM)	128 µg/mL (≈ 286 µM)	128 µg/mL (≈ 286 µM)	32 µg/mL (≈ 71.5 µM)	256 µg/mL (≈ 572 µM)	64 µg/mL (≈ 143 µM)	128 µg/mL (≈ 286 µM)	32 µg/mL (≈ 71.5 µM)	64 µg/mL (≈ 143 µM)	256 µg/mL (≈ 572 µM)	128 µg/mL (≈ 286 µM)
COc1ccc(Cn2cc(-c3cnc(N)s3)c(=O)c3cc(F)cc(F)c32)cc1	256 µg/mL (≈ 641 µM)	256 µg/mL (≈ 641 µM)	128 µg/mL (≈ 320 µM)	64 µg/mL (≈ 160 µM)	64 µg/mL (≈ 160 µM)	128 µg/mL (≈ 320 µM)	128 µg/mL (≈ 320 µM)	64 µg/mL (≈ 160 µM)	256 µg/mL (≈ 641 µM)	64 µg/mL (≈ 160 µM)	256 µg/mL (≈ 641 µM)	256 µg/mL (≈ 641 µM)	512 µg/mL (≈ 1280 µM)	64 µg/mL (≈ 160 µM)	64 µg/mL (≈ 160 µM)
Nc1ncc(-c2cn(Cc3ccc(Cl)cc3)c3c(F)cc(F)cc3c2=O)s1	64 µg/mL (≈ 158 µM)	128 µg/mL (≈ 317 µM)	256 µg/mL (≈ 634 µM)	64 µg/mL (≈ 158 µM)	64 µg/mL (≈ 158 µM)	128 µg/mL (≈ 317 µM)	16 µg/mL (≈ 39.6 µM)	128 µg/mL (≈ 317 µM)	32 µg/mL (≈ 79.2 µM)	32 µg/mL (≈ 79.2 µM)	512 µg/mL (≈ 1270 µM)	256 µg/mL (≈ 634 µM)	256 µg/mL (≈ 634 µM)	64 µg/mL (≈ 158 µM)	128 µg/mL (≈ 317 µM)
